Entries after “also recorded” stand apart in the source; their conditions may differ.
Tests used:
[1] = system: jagn1b knock-out zebrafish mutant embryos; experiment: Zebrafish jagn1b knock-out neutropenia model, number of neutrophils; type: in vivo; conditions: two days treatment
Procedure: (§1) Zebrafish transgenic lines and wild type were maintained according to standard protocols and handled in accordance with European Union animal protection directive 2010/63/EU. The maintenance was approved by the local government (Tierschutzgesetz § 11, Abs. 1, Nr. 1, husbandry permit 35/9185.46/Uni TÜ). All the experiments were performed in zebrafish embryos under 5 days post fertilization. In this study the inventors used two transgenic (tg) reporter lines, tg(mpo: gfp), where neutrophils express gfp and tg(CD41:gfp),where HSPCs express gfp, both described in the art.
(§2) To generate the jagn1b and hax1 mutants two different approaches were used, CRISPR/Cas9-mediated knock-out and morpholino-based knock down, respectively. On the one hand, to interfere with the function of jagn1b, jagn1b-targeting sgRNA and Cas9 protein RNPs (Alt-R S.p. Cas9 nuclease, v.3, IDT) were injected into the blastomere of 1-cell stage tg (mpo: gfp) embryos, as described in the art. On the other hand, to interfere with hax1 function 1 mM hax1-specific morpholino (GeneTool) was injected into 1-cell stage tg (mpo: gfp) embryos as previously described in the art. […] After two days of treatment, the number of mpo:gfp^+ or CD41:gfp^+ cells where quantified using a Nikon stereo-fluorescent SMZ18 microscope.

[2] = system: CD34+ HSPCs of healthy donors; experiment: Annexin V apoptosis assay on CD34+ HSPCs; type: cell-based, human; conditions: 40 nM, 48 hours
[3] = system: in vitro generated neutrophils; experiment: Reactive oxygen species (ROS) assay of in vitro generated neutrophils; type: cell-based, human; conditions: differentiated in the presence of 40 nM flavopiridol
ELANE-CN iPSCs = experiment: Colony-forming unit (CFU) assay of CD34+ cells from EB-based CN-iPSC culture; type: cell-based, human
Procedure: Colony-forming unit (CFU) assay of CD34^+ cells harvested from EB-based CN-iPSC culture on day 14 of differentiation treated with eleven short listed small molecules.
EB-Based Hematopoietic Differentiation of iPSCs iPSCs were cultured on SNL feeder cells for 24 hours and then dissociated using PBS/EDTA (0.02%) for 5 min. EB generation was performed by centrifugation of 2×10^4 cells per EB in 96-well plates using APEL serum-free differentiation medium (Stemcell Technologies) supplemented with bFGF (20 ng/μl) and ROCK Inhibitor (R&D). On day one, BMP4 (40 ng/μl) was added to the culture medium to induce mesodermal differentiation. On day four, EBs were plated on Matrigel-coated 6-well plates (10 EBs/well) in APEL medium supplemented with VEGF (40 ng/μl), SCF (50 ng/μl) and IL-3 (50 ng/μl). For neutrophilic differentiation, the medium was changed 3 days later to fresh APEL medium supplemented with IL3 (50 ng/μl) and G-CSF (50 ng/μl). All cytokines were purchased from R&D Systems if nothing else is indicated. First hematopoietic suspension cells appeared between day 10 and 14. Suspension cells were harvested every 3-4 days and analyzed starting from day 14 to day 32.
The inventors then selected eleven small molecules that could potentially mimic the differentially expressed genes (DEGs) signature between CN and CN-corrected HSPCs and screened the effect of these small molecules on granulopoiesis using their isogenic CN iPSC model.

[4] = prior-art clinical trials, used to inhibit CDKs and induce apoptosis in leukemia cells (Gerson et al. 2018); cited from earlier work
[5] = system: in vitro generated neutrophils; experiment: Chemotaxis assay of in vitro generated neutrophils; type: cell-based, human; conditions: differentiated in the presence of 40 nM flavopiridol
[6] = system: human primary neutrophils of healthy donor; experiment: RealTime-Glo MT Cell Viability Assay on human primary neutrophils; type: cell-based; conditions: 40 nM, compared with 0.1% DMSO
Excerpt: The assay measures the reducing potential of viable cells in an ATP-independent manner and the nonlytic nature, high sensitivity and rapid response of the assay make it possible to track the cell viability over time in the same plate. Ficoll-Paque density gradient media (density: 1.077 g/mL) used for isolation of peripheral blood polymononuclear cell (PBPMNs) 1 of healthy donors.

[7] = system: primary bone marrow CD34+ HSPCs of ELANE-CN, HAX1-CN, JAGN1-CN and SRP54-CN patients; experiment: Granulocytic liquid culture differentiation (LCD) of CN patient CD34+ HSPCs; type: cell-based, human; conditions: all CN patients
Procedure: (§3) CD34+ cells were seeded in a 24-well plate at a density of 2×10^5 cells/ml. […] Medium was exchanged every second day. On day 7, cells were plated in RPMI 1640 GlutaMAX supplemented with 10% FBS, 1% penicillin/streptomycin and 10 ng/ml G-CSF. On day 14, cells were analyzed by flow cytometry using following mouse anti-human antibodies: CD34 (BD, #348811), CD33 (BioLegend, #303416), CD45 (BioLegend, #304036), CD11b (BD, #557754), CD15 (BD, #555402), CD66b (BioLegend, #305114), CD16 (BD, #561248).

[8] = system: in vitro generated neutrophils; experiment: RealTime-Glo MT cell viability assay on in vitro generated neutrophils; type: cell-based, human; conditions: day 13 of LCD, four healthy donors
[9] = system: in vitro generated neutrophils; experiment: Phagocytosis assay of in vitro generated neutrophils; type: cell-based, human; conditions: differentiated in the presence of 40 nM flavopiridol
HSPCs (CD41: gfp+ cells) = experiment: Zebrafish in vivo model, number of HSPCs in tg(CD41:gfp) embryos; conditions: up to 10 µM, two days, compared to DMSO-treated controls
Procedure: as §1, §2

[10] = system: primary bone marrow CD34+ HSPCs of healthy donors; experiment: Granulocytic liquid culture differentiation (LCD) of healthy donor CD34+ HSPCs; type: cell-based, human; conditions: for neutrophil count, morphological examination of cytospin preparations: day 14
Procedure: as §3

[11] = system: hax1-knock-down zebrafish mutant embryos (hax1 MO); experiment: Zebrafish hax1 knock-down neutropenia model, number of neutrophils; type: in vivo; conditions: two days treatment
Procedure: as §1, §2

[12] = system: CD34+ HSPCs of healthy donors; experiment: RealTime-Glo MT Cell Viability Assay on CD34+ HSPCs; type: cell-based, human; conditions: 40 nM, 48 hours, versus DMSO-treated group
[13] = system: primary bone marrow CD34+ HSPCs of healthy donors; experiment: CFU assay of primary bone marrow CD34+ HSPCs of healthy donors; type: cell-based, human; conditions: 40 nM, compared to DMSO control
Excerpt: FIG. 3A. […] Data represent means±SD from two independent experiments. **P<0.01.

[14] = system: primary bone marrow CD34+ HSPCs of ELANE-CN, HAX1-CN, JAGN1-CN and SRP54-CN patients; experiment: CFU assay of primary bone marrow CD34+ HSPCs of CN patients; type: cell-based, human; conditions: two ELANE-CN, one HAX1-CN, one SRP54-CN patient, 40 nM
Excerpt: FIG. 4A. […] Data represent means±SD from two independent experiments. *P<0.05, **P<0.01.

[15] = system: in vitro generated neutrophils; experiment: Annexin V apoptosis assay on in vitro generated neutrophils; type: cell-based, human; conditions: day 13 of LCD, four healthy donors
[16] = three independent ELANE-CN derived iPSCs, 40 nM flavopiridol

Structure (SMILES): CN1CC[C@H](c2c(O)cc(O)c3c(=O)cc(-c4ccccc4Cl)oc23)[C@H](O)C1 [flavopiridol]
- number of neutrophils (mpo: gfp+ cells) [1]: significantly restored the number of neutrophils (mpo: gfp^+ cells) to a similar level to wildtype controls; also recorded: restored the number of neutrophils (mpo: gfp^+ cells) to a similar level than the wildtype controls
- apoptosis in CD34+ HSPCs [2]: did not induce apoptosis
- neutrophil function, reactive oxygen species (ROS) [3]: did not affect neutrophil function
- granulopoiesis in CN iPSCs (screening) (ELANE-CN iPSCs; screen of eleven small molecules in isogenic CN iPSC model): markedly restored the granulopoiesis
- CFU-macrophages (CFU-Ms) (ELANE-CN iPSCs; [16]): significant decrease
- colony-forming unit-granulocytes (CFU-G) (ELANE-CN iPSCs; [16]): significant increase
- steady-state blood plasma levels [4]: about 350 nM
- neutrophil function, chemotaxis [5]: did not affect neutrophil function
- viability of neutrophils ([6]; 3 hours): No significant difference
- viability of neutrophils ([6]; 24 hours): No significant difference
- viability of neutrophils ([6]; 48 hours): No significant difference
- granulopoiesis: numbers of granulocytes and mature neutrophils by flow cytometry ([7]; 40 nM, 14 days): significant restoration of granulopoiesis
- granulopoiesis, morphological examination of cytospin preparations ([7]; day 14): significant restoration or restoration trend of granulopoiesis
- levels of viability upon differentiation [8]: improved levels of viability
- neutrophil function, phagocytosis [9]: did not affect neutrophil function
- total number of HSPCs (CD41: gfp+ cells) (HSPCs (CD41: gfp+ cells)): did not affect
- granulopoiesis: numbers of granulocytes (CD45+CD15+CD11b+, CD45+CD15+CD66b+) and mature neutrophils (CD45+CD15+CD16+) ([10]; both healthy donors, 40 nM, 14 days, flow cytometry): significantly enhanced granulopoiesis
- neutrophil count, morphological examination of cytospin preparations ([10]; healthy donor one (HD1)): no change
- neutrophil count, morphological examination of cytospin preparations ([10]; healthy donor two (HD 2)): a significant increase in neutrophil count
- number of neutrophils (mpo: gfp+ cells) [11]: significantly restored the number of neutrophils (mpo: gfp^+ cells) to a similar level to wildtype controls; also recorded: increased to a similar level than the wildtype controls
- viability of CD34+ HSPCs [12]: comparable to that of the DMSO-treated group
- levels of CFU-G ([13]; healthy donor one (HD1)): significantly elevated levels of CFU-G
- levels of CFU-G ([13]; healthy donor two (HD2)): no significant change
- levels of CFU-G [14]: significantly elevated levels of CFU-G in all CN groups
- early apoptotic cells [15]: about 3%
- late apoptotic cells [15]: less than 2%
- live cells [15]: More than 95%

Source: US20260076952A1, “Agent for Treatment of Neutropenia” (Eberhard Karls Universität Tübingen Medizinische Fakultät, priority 2023, published 2026)
